Assay results published in patent US20110213193A1, “Magnetic Nanodelivery of Therapeutic Agents Across the Blood Brain Barrier” (THE FLORIDA INTERNATIONAL UNIVERSITY BOARD OF TRUSTEES, priority 2008, published 2011).

Test system: HIV-1 infected PBMCs
Assay: p24 antigen production by HIV-1 infected PBMCs
Assay type: cell-based
Conditions: identical culture conditions, various doses
Method: The efficacy of magnetic nanoparticle-AZTTP was evaluated in an in vitro model system using HIV infected peripheral blood mononuclear cells (PBMCs). […] Therefore, binding of AZTTP to magnetic nanoparticles have no effect on its biological activity.

For Cc1cn([C@H]2C[C@H](N=[N+]=[N-])[C@@H](COP(=O)(O)OP(=O)(O)OP(=O)(O)O)O2)c(=O)[nH]c1=O [free AZTTP, 3′-Azido-3′-Deoxythymidine-5′-triphosphate], the “anti-HIV activity of free AZTTP (positive control) and MP-AZTTP compared” value was “similar”.
